According to ChEMBL document CHEMBL5505952, “Targeting SARS-CoV-2 entry processes: The promising potential and future of host-targeted small-molecule inhibitors” (Eur J Med Chem, 2024):
*1 amine or outer side, *2 acyl side, *3 side chain or, on linkers, in order; H or OH if unused. Where a SMILES comes first, the peptide text is derived from it. [ ]: non-standard residue; d: D form. The star is where a group is joined. X1 = N=C(N)NCCC[C@H](N[*:1])C(=O)c1nc2ccc(C(=O)[*:2])cc2s1; Nle = CCCC[C@H](N)C(=O)O; Cbz = O=C(OCc1ccccc1)*

Assays:
[1] = biological target: Neuropilin-1 (Homo sapiens, UniProt O14786); experiment: Inhibition of [125I]-VEGF-A165 binding to NRP1 (unknown origin) in HUVEC cells; assay type: cell-based
[2] = tested on: SARS-CoV-2; experiment: Antiviral activity against SARS-CoV-2 WA1/2020 infected in human Calu-3 cells preincubated for 2 hrs followed by viral infection and measured after 48 hrs by microscopy analysis; assay type: functional, organism-based; settings: Severe acute respiratory syndrome coronavirus 2, WA1/2020, Calu-3
[3] = tested on: SARS-CoV-2; experiment: Antiviral activity against VSV-S pseudotyped SARS-CoV-2 infected in human Calu-3 cells assessed as inhibition of viral growth; assay type: functional, organism-based; settings: Severe acute respiratory syndrome coronavirus 2, Calu-3
[4] = biological target: T1, 1-phosphatidylinositol 3-phosphate 5-kinase (Homo sapiens, UniProt Q9Y2I7); experiment: Binding affinity to N-terminal His-tagged human PIKfyve expressed in Sf9 cells assessed as dissociation constant
[5] = tested on: SARS-CoV-2; assay type: functional, organism-based; settings: Severe acute respiratory syndrome coronavirus 2, Vero C1008, 72 h
[6] = tested on: SARS-CoV-2; assay type: functional, organism-based; settings: Severe acute respiratory syndrome coronavirus 2, NRC-03-nhCoV, Vero C1008, 72 h
[7] = tested on: RAW264.7; experiment: Antiinflammatory activity in mouse RAW264.7 cells assessed as effect on LPS induced IL-12p40 level measured after 24 hrs by RT-qPCR analysis; assay type: functional, cell-based; settings: RAW264.7, 24 h
[8] = tested on: SARS-CoV-2; assay type: functional, organism-based; settings: Severe acute respiratory syndrome coronavirus 2, Vero C1008, 48 h
[9] = biological target: T1, 1-phosphatidylinositol 3-phosphate 5-kinase; experiment: Inhibition of PIKfyve (unknown origin)
[10] = tested on: SARS-CoV-2; experiment: microbe, parasite or virus in culture; settings: Severe acute respiratory syndrome coronavirus 2, Vero C1008, 24 h
[11] = tested on: SARS-CoV-2; experiment: microbe, parasite or virus in culture; settings: Severe acute respiratory syndrome coronavirus 2, Huh-7
[12] = tested on: SARS-CoV-2; assay type: functional, organism-based; settings: Severe acute respiratory syndrome coronavirus 2, Vero C1008, 48 h; remark: listed apart in the source
[13] = tested on: SARS-CoV-2; experiment: Antiviral activity against SARS-CoV-2 USA-WA1/2020 infected in human Calu-3 cells assessed as reduction in viral replication by qRT-PCR analysis; assay type: functional, organism-based; settings: Severe acute respiratory syndrome coronavirus 2, USA-WA1/2020, Calu-3
[14] = tested on: SARS-CoV-2; assay type: functional, organism-based; settings: Severe acute respiratory syndrome coronavirus 2, Omicron B.1.617.2 delta, 293T/ACE2, 48 h
[15] = tested on: SARS-CoV-2; assay type: functional, organism-based; settings: Severe acute respiratory syndrome coronavirus 2, USA-WA1/2020, Huh-7
[16] = tested on: SARS-CoV-2; experiment: Antiviral activity against SARS-CoV-2 USA-WA1/2020 infected in african green monkey Vero C1008 cells assessed as reduction in viral replication by qRT-PCR analysis; assay type: functional, organism-based; settings: Severe acute respiratory syndrome coronavirus 2, USA-WA1/2020, Vero C1008
[17] = tested on: SARS-CoV-2; experiment: microbe, parasite or virus in culture; settings: Severe acute respiratory syndrome coronavirus 2, USA-WA1/2020, Vero 76, 72 h
[18] = tested on: SARS-CoV-2; experiment: microbe, parasite or virus in culture; settings: Severe acute respiratory syndrome coronavirus 2, Huh-7; remark: listed apart in the source
[19] = tested on: SARS-CoV-2; experiment: microbe, parasite or virus in culture; settings: Severe acute respiratory syndrome coronavirus 2, Vero C1008, 24 h; remark: listed apart in the source
[20] = tested on: SARS-CoV-2; experiment: microbe, parasite or virus in culture; settings: Severe acute respiratory syndrome coronavirus 2, Calu-3, 48 h
[21] = tested on: SARS-CoV-2; assay type: functional, organism-based; settings: Severe acute respiratory syndrome coronavirus 2, Huh-7
[22] = biological target: T2, Procathepsin L (Homo sapiens, UniProt P07711); experiment: Inhibition of Cathepsin L (unknown origin)
[23] = tested on: SARS-CoV-2; assay type: functional, organism-based; settings: Severe acute respiratory syndrome coronavirus 2, Huh-7; remark: listed apart in the source
[24] = biological target: Replicase polyprotein 1ab (Severe acute respiratory syndrome coronavirus 2, UniProt P0DTD1); experiment: Inhibition of SARS-Cov-2 Main protease by FRET assay
[25] = tested on: SARS-CoV-2; assay type: functional, organism-based; settings: Severe acute respiratory syndrome coronavirus 2, Wuhan-Hu-1, Vero C1008
[26] = biological target: T2, Procathepsin L; experiment: Inhibition of human recombinant Cathepsin L using Z-Phe-Arg-AMC as substrate incubated for 60 mins by fluorescence spectrophotometric analysis

T2 sequence (P07711 whole entry): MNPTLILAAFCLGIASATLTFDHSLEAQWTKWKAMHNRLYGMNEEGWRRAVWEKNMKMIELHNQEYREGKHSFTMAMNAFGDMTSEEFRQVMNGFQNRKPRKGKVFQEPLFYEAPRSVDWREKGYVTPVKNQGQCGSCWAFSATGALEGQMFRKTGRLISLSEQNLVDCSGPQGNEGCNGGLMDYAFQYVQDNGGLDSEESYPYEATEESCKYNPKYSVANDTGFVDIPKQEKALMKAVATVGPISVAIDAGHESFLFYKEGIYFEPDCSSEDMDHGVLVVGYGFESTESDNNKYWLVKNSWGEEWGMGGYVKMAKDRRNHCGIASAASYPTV
T1 sequence (Q9Y2I7 whole entry): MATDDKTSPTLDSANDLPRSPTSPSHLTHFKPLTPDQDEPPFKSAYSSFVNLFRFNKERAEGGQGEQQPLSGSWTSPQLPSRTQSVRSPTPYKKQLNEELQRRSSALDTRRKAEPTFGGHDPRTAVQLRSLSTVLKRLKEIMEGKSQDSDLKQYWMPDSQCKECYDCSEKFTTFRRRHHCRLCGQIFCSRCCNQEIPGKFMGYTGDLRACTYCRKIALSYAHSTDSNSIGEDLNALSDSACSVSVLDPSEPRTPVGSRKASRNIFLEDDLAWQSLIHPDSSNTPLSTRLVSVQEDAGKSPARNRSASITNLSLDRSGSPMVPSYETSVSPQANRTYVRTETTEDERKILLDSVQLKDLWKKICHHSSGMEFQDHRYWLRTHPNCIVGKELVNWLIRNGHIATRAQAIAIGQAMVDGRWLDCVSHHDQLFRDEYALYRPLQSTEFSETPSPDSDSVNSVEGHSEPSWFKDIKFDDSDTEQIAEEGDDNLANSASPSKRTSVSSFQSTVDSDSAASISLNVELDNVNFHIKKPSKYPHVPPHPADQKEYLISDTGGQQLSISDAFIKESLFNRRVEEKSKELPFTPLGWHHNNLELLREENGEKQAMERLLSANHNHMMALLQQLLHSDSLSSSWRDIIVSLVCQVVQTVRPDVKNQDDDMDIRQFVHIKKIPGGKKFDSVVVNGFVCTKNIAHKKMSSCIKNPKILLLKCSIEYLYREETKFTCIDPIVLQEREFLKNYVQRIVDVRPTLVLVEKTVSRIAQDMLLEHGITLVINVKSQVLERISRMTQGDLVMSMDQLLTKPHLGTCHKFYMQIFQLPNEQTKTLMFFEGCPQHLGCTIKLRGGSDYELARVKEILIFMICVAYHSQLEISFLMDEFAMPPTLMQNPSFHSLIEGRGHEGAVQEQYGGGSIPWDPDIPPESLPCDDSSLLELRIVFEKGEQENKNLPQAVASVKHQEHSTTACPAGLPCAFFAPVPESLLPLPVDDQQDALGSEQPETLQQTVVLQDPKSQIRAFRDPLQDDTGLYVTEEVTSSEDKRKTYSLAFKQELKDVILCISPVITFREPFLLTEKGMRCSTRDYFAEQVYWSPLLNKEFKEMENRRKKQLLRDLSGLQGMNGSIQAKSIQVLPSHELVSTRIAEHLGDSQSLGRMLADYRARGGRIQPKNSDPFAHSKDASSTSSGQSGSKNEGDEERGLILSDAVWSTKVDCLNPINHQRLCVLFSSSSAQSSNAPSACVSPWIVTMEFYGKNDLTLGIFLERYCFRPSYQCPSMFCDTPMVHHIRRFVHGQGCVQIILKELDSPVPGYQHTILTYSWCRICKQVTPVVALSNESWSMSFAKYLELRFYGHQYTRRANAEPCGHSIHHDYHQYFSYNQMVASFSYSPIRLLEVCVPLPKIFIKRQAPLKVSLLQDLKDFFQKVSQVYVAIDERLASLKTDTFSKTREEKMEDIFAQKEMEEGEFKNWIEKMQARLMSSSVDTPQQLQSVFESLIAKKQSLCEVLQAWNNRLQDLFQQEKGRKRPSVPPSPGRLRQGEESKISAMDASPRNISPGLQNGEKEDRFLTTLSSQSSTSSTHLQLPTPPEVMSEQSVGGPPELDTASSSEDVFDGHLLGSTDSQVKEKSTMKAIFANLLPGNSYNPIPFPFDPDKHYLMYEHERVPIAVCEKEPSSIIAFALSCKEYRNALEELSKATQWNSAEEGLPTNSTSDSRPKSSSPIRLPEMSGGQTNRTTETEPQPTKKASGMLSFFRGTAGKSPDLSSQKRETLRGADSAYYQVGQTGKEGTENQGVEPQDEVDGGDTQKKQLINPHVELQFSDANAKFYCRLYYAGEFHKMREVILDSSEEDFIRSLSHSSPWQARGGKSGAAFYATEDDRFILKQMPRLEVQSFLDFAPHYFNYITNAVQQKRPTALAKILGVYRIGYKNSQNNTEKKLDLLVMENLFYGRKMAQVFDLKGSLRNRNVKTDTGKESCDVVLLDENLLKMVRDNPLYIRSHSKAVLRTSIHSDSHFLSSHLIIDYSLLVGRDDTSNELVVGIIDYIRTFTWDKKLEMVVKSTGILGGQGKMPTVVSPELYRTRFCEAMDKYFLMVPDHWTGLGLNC
Sequence of Neuropilin-1 (O14786 whole entry): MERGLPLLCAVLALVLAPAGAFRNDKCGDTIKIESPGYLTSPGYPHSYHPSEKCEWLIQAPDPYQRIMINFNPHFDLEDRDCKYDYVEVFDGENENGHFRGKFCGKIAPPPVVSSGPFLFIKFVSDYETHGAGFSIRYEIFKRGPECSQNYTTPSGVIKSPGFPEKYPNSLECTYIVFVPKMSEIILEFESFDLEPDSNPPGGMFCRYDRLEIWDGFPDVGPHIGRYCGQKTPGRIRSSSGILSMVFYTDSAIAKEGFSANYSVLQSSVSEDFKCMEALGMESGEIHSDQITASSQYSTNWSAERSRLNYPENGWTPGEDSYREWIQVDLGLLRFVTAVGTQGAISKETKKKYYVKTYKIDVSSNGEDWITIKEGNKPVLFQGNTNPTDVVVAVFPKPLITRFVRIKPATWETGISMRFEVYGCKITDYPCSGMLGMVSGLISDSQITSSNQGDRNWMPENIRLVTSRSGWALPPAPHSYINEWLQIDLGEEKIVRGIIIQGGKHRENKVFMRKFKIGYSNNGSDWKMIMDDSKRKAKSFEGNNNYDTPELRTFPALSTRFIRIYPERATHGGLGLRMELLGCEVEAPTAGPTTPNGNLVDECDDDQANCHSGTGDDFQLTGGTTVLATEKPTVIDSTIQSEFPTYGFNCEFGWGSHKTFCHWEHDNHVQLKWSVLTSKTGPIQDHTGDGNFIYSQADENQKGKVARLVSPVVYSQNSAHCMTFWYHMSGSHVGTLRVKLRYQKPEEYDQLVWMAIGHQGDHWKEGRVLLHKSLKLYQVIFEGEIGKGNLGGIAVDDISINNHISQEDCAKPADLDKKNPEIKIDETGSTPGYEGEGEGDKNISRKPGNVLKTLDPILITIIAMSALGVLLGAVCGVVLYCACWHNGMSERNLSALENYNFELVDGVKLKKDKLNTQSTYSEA

## Cc1nc(N2CCOCC2)ncc1-c1cc(=O)[nH]c(Nc2ccccc2)n1
[1]
  IC50: 0.598 nM

## CC(=O)N1CCC[C@H]1C(=O)N[C@@H](CCC(N)=O)C(=O)N[C@@H](Cc1ccccc1)C(=O)N[C@@H](CCCNC(=N)N)C(=O)c1nc2ccccc2s1
[2]
  IC50: 105 nM
[3]
  EC50: 0.86 nM

## Cc1ccc(NC(=O)c2cccc(C(F)(F)F)c2)cc1Nc1nc(-c2ccncc2)c2[nH]ccc2n1
[4]
  Kd: > 30000 nM
[5]
  EC50: 12300 nM

## N=C(N/N=C/c1ccncc1)c1nonc1NCNc1nonc1C(=N)N/N=C/c1ccncc1
[6]
  IC50: 16 nM

## Cc1ncc(-c2ccc(C3=CCN(C(C)C)CC3)nc2)cc1NC(=O)c1ccc2[nH]c(C)c(C)c2n1
[7]
  IC50: 2 nM

## CC[C@@H](C)[C@H](NC(C)=O)C(=O)N[C@@H](CCC(N)=O)C(=O)N[C@@H](Cc1ccccc1)C(=O)N[C@@H](CCCNC(=N)N)C(=O)c1nc2ccccc2s1
[2]
  IC50: 102 nM
[3]
  EC50: 3.6 nM

## CCc1c(C)[nH]c2ccc(C(=O)Nc3cncc(-c4ccc(N5C[C@@H](C)O[C@@H](C)C5)nc4)c3)nc12
[7]
  IC50: 2.4 nM

## Nc1ncc2c(n1)Cc1c([nH]c3ccc(-c4ccc(F)cc4)cc13)CC2
[8]
  IC50: 73.3 nM
[9]
  IC50: 9.3 nM

## Cn1nc(C(C)(C)C)cc1C(=O)N[C@@H](Cc1cccc(Cl)c1)C(=O)NCC#N
[10]
  EC50: 140 nM

## CCCC[C@@H](C=O)NC(=O)[C@H](CC(C)C)NC(=O)[C@H](CC(C)C)NC(C)=O (Ac-Leu-Leu-[Nle]-aldehyde)
[11]
  EC50: 3120 nM

## CC(=O)N[C@@H](CO)C(=O)N[C@@H](CCCCN)C(=O)N[C@@H](CC(C)C)C(=O)N[C@@H](CCCNC(=N)N)C(=O)c1nc2ccc(C(=O)N[C@H](C(N)=O)C(C)C)cc2s1 (Ac-SKL[X1]V-NH2)
[12]
  EC50: 307 nM
[3]
  EC50: 489 nM

## O=C[C@H](Cc1ccc(O)cc1)NC(=O)[C@H](Cc1ccccc1)NC(=O)OCc1ccccc1 (Cbz-Phe-Tyr-aldehyde)
[10]
  EC50: 620 nM

## CC(C)[C@H](NC(=O)OCc1ccccc1)C(=O)N[C@H](C=O)Cc1ccccc1 (Cbz-Val-Phe-aldehyde)
[10]
  EC50: 1560 nM

## CCOC(=O)[C@H]1O[C@@H]1C(=O)N[C@@H](CC(C)C)C(=O)NCCC(C)C [ALOXISTATIN]
[10]
  EC50: 270 nM

## N=C(N)NCCCCC(=O)Nc1cc(C(F)(F)F)cc(NC(=O)c2cc(C(=O)Nc3cc(C(F)(F)F)cc(NC(=O)CCCCNC(=N)N)c3O[C@@H]3CCNC3)ncn2)c1O[C@@H]1CCNC1 [BRILACIDIN]
[13]
  IC50: 12000 nM
[14]
  IC50: 12000 nM
[15]
  IC50: 12000 nM
[16]
  IC50: 12000 nM

## CCCC[C@@H](C=O)NC(=O)[C@H](CC(C)C)NC(=O)OCc1ccccc1 [CALPEPTIN]
[17]
  EC50: 1030 nM
[18]
  EC50: 29800 nM

## C#Cc1cccc(Nc2ncnc3cc(OCCOC)c(OCCOC)cc23)c1 [ERLOTINIB]
[19]
  EC50: > 20000 nM
[20]
  EC50: > 20000 nM

## CC(C)C[C@@H](C=O)NC(=O)[C@H](CC(C)C)NC(=O)[C@H](CC(C)C)NC(=O)OCc1ccccc1 [MG-132] (Cbz-Leu-Leu-Leu-aldehyde)
[21]
  EC50: 210 nM
[22]
  IC50: 12.3 nM
[23]
  EC50: 212 nM

## CCN(CC)CCNC(=O)c1c(C)[nH]c(/C=C2\C(=O)Nc3ccc(F)cc32)c1C [SUNITINIB]
[19]
  EC50: 2400 nM
[20]
  EC50: 2900 nM

## N[C@H]1C(=O)N[C@@H]2Cc3ccc(c(Cl)c3)Oc3cc4cc(c3O)Oc3ccc(cc3Cl)[C@@H](O)[C@@H]3NC(=O)[C@H](NC(=O)[C@@H]4NC(=O)[C@@H](NC2=O)c2cc(O)cc(c2)Oc2cc1ccc2O)c1ccc(O)c(c1)-c1c(O)cc(O)cc1[C@@H](C(=O)O)NC3=O [TEICOPLANIN AGLYCON]
[24]
  IC50: 1460 nM
[25]
  IC50: 2040 nM
[26]
  IC50: 208000 nM
